# Where two headings read alike, the source gives them in different places.
# Experiments:
# [1] = In vitro serum stability in mouse serum; type: in vitro ADME; conditions: 37° C., 24 h
# Method: After the incubation, 10 μL of 0.5% EDTA aqueous solution was added into the reaction vial to scavenge potential unbound ^111In^3+ ions. The radiolabeled peptide was purified to single species by Waters RP-HPLC (Milford, Mass.) on a Grace Vydac C-18 reverse phase analytical column (Deerfield, Ill.) using a 20-minute gradient of 18-28% acetonitrile in 20 mM HCl aqueous solution with a flow rate of 1.0 mL/min. Purified peptide sample was purged with N2 gas for 20 minutes to remove the acetonitrile. The pH of final solution was adjusted to 7.4 with 0.1 N NaOH and sterile normal saline for animal studies.
# Briefly, 50 μL of ^111InCl3 (37-74 MBq in 0.05 M HCl aqueous solution), 10 μL of 1 mg/mL peptide aqueous solution and 400 μL of 0.5 M NH4OAc (pH 4.5) were added into a reaction vial and incubated at 75° C. for 45 mins. After the incubation, 10 μL of 0.5% EDTA (ethylenediaminetetraacetic acid) aqueous solution was added into the reaction vial to scavenge potential unbound ^111In^3+ ions. The radiolabeled complexes were purified to single species by Waters RP-HPLC (Milford, Mass.) on a Grace Vydac C-18 reverse phase analytical column (Deerfield, Ill.) using the following gradient at a 1 mL/min flowrate. The mobile phase consisted of solvent A (20 mM HCl aqueous solution) and solvent B (100% CH3CN). The gradient was initiated and kept at 82:18 A/B for 3 mins followed by a linear gradient of 82:18 A/B to 72:28 A/B over 20 mins. Then, the gradient was changed from 72:28 A/B to 10:90 A/B over 3 mins followed by an additional 5 mins at 10:90 A/B. Thereafter, the gradient was changed from 10:90 AB to 82:18 AB over 3 mins. Each purified peptide sample was purged with N2 gas for 20 mins to remove the acetonitrile. The pH of the final solution was adjusted to 7.4 with 0.1 N NaOH and sterile saline for animal studies. In vitro serum stability of ^111In-DOTA-GGNle-CycMSHhex and ^111In-DOTA-GENle-CycMSHhex were determined by incubation in mouse serum at 37° C. for 24 h and monitored for degradation by RP-HPLC.
# B16/F1 melanoma = conditions: literature, cited from earlier work
smiles,measurement,setting,value
"CCCC[C@H](NC(=O)CN1CCN(CC(=O)O)CCN(CC(=O)O)CCN(CC(=O)O)CC1)C(=O)N[C@H]1CC(=O)NCCCC[C@@H](C(N)=O)NC(=O)[C@H](Cc2c[nH]c3ccccc23)NC(=O)[C@H](CCCNC(=N)N)NC(=O)[C@@H](Cc2ccccc2)NC(=O)[C@H](Cc2c[nH]cn2)NC1=O [^111In-DOTA-Nle-CycMSHhex, metal not drawn]",serum stability by RP-HPLC,[1],stable
same,tumor (melanoma) uptake,B16/F1 melanoma; 0.5 h post-injection,24.94±4.58 % ID/g
same,tumor (melanoma) uptake,B16/F1 melanoma; 2 h post-injection,19.39±1.65 % ID/g
same,tumor (melanoma) uptake,B16/F1 melanoma; 4 h post-injection,17.01±2.54 % ID/g

# — patent publication US9493537B2, “Compounds with reduced ring size for use in diagnosing and treating melanoma, including metastatic melanoma and methods related to same” (STC.UNM, priority 2009, dated 2016)
